Active and inactive are the calls of the source. The rule behind the calls is not given here.

The values that follow come from ChEMBL document CHEMBL5338818, “Discovery of the First Potent, Selective, and In Vivo Efficacious Polo-like Kinase 4 Proteolysis Targeting Chimera Degrader for the Treatment of TRIM37-Amplified Breast Cancer” (J Med Chem, 2023).

In data set [1] the target is T1, Protein cereblon/Serine/threonine-protein kinase PLK4 (Homo sapiens, UniProt O00444+Q96SW2). Briefly: Protac activity at CRBN/PLK4 in human MCF7 cells at 10 uM by Western blot analysis. The data set is classed as cell-based.
Data set [2] is described as follows: Stability in human plasma assessed as half life at 100 uM after 120 mins by LC-MS/MS analysis. The data set is classed as ADME, cell-free.
For data set [3], the target named is T1, Protein cereblon/Serine/threonine-protein kinase PLK4. Briefly: Protac activity at CRBN/PLK4 in human MCF7 cells at 1 to 10 nM by Western blot analysis. The data set is classed as cell-based. The note with it: dose 1-10 nM, time 6-72 hrs, TDE = time-dependent effect.
Data set [4] has as its system MCF7. Briefly: Antiproliferative activity against human MCF7 cells incubated for 5 days by CCK-8 assay. The settings on record: MCF7, 120 h.
Data set [5] has as its target T2, Serine/threonine-protein kinase PLK4 (Homo sapiens, UniProt O00444).
T2 sequence (O00444 whole entry): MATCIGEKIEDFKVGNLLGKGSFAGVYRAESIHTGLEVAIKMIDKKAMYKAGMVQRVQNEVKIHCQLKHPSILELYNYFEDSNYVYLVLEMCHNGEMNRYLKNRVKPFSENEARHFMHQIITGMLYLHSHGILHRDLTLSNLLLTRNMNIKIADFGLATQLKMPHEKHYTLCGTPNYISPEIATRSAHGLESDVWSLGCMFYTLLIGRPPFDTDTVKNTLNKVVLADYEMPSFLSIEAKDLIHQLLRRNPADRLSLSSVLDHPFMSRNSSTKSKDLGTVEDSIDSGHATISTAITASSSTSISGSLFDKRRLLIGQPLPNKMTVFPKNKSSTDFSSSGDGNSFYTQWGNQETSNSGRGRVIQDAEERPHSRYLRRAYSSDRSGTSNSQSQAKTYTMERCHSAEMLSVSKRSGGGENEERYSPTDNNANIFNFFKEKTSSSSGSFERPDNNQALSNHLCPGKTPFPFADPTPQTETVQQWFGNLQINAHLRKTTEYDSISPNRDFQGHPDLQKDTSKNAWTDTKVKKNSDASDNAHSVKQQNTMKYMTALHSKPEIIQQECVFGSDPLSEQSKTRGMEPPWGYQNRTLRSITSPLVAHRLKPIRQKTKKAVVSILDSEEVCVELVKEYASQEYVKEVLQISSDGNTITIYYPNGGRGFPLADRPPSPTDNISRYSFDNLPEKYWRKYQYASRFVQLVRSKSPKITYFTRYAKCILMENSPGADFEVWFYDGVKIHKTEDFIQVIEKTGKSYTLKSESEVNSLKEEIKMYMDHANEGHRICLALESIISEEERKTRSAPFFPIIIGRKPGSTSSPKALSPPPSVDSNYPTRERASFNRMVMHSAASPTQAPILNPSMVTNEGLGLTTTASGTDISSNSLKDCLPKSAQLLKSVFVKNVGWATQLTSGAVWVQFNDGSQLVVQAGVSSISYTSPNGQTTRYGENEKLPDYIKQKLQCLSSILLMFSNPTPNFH
Put plainly: Inhibition of PLK4 (unknown origin) incubated for 1 hr in presence of kinase tracer 236 by FRET assay.

The target of data set [6] is T1, Protein cereblon/Serine/threonine-protein kinase PLK4. Briefly: Protac activity at CRBN/PLK4 in human MCF7 cells at 0.1 uM incubated for 48 hrs by Western blot analysis. The data set is classed as cell-based.
The target is the same in data set [7]. Briefly: Protac activity at CRBN/PLK4 in human MCF7 cells at 1 uM incubated for 48 hrs by Western blot analysis. The format is cell-based.
The target is the same in data set [8]. Put plainly: Protac activity at CRBN/PLK4 in human MCF7 cells at 10 uM incubated for 48 hrs by Western blot analysis. The format is cell-based.
The test system of data set [9] is CYP2D6. Briefly: Inhibition of CYP2D6 in human liver microsomes at 10 uM using quinidine as substrate preincubated for 10 mins followed by NADPH regenerating system addition and measured after 15 mins by LC-MS/MS analysis relative to control. The data set is classed as ADME, Microsome. The settings on record: time 25 min.

T1 sequence (Q96SW2 whole entry, looked up, one chain of several): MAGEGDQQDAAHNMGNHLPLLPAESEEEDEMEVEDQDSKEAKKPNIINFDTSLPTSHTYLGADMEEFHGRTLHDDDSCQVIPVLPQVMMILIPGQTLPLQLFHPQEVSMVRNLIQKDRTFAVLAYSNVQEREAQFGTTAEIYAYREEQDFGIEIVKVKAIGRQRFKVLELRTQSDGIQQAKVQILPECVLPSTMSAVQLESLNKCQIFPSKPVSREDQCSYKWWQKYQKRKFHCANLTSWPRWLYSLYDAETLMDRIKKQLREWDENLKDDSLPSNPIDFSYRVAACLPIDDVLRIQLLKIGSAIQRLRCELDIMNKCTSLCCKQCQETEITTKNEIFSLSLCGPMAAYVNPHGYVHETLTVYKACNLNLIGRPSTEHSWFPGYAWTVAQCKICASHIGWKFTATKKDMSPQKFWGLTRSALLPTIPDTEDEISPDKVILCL

As for `Cc1cc(Nc2nc(NCc3ccc(F)cc3F)nc3c2cnn3C2CCN(C(=O)C3CCN(c4ccc5c(c4)C(=O)N(C4CCC(=O)N(C)C4=O)C5=O)CC3)CC2)n[nH]1` (centres undefined), the result in [1] was inactive.
As to `CC(C)[N+](C)(CCOC(=O)C1c2ccccc2Oc2ccccc21)C(C)C.[Br-]` [PROPANTHELINE BROMIDE], in data set [2], the half-life at 100 µM stood at 19.8 min.
Regarding `Cc1cc(Nc2nc(NCc3ccc(F)cc3F)nc3c2cnn3C2CCN(C(=O)CCCOc3ccc4c(c3)C(=O)N(C3CCC(=O)NC3=O)C4=O)CC2)n[nH]1` (centres undefined), the Activity result is “Tde” in data set [3], 44.6% in data set [6], 53.1% in [7] and 65.8% in data set [8]. The IC50 in data set [4] was 2150 nM; in data set [5], 1.5 nM.
In the case of `Cc1cc(Nc2nc(NCc3ccc(F)cc3F)nc3c2cnn3C2CCN(C(=O)CCCCCCOc3ccc4c(c3)C(=O)N(C3CCC(=O)NC3=O)C4=O)CC2)n[nH]1` (centres undefined), the IC50 in data set [4] was found to be 220 nM; in data set [5], 9.1 nM. Further, the results for the Activity in data set [6], in data set [7] and in data set [8] were 31.7%, 55.3% and 68.9%, respectively.
Turning to `Cc1cc(Nc2nc(NCc3ccc(F)cc3F)nc3c2cnn3C2CCN(C(=O)C3CN(c4ccc5c(c4)C(=O)N(C4CCC(=O)NC4=O)C5=O)C3)CC2)n[nH]1` (centres undefined), the results for the IC50 in data set [4] and in [5] were 250 nM and 18.9 nM, respectively. Moreover, the Activity in data set [6] came to 46.3%; in data set [7] it was 52.2%; in data set [8], 73.5%.
Molecule `C=C[C@H]1C[N@@]2CC[C@H]1C[C@@H]2[C@@H](O)c1ccnc2ccc(OC)cc12` [QUINIDINE] yielded an inhibition at 0.25 h, 10 µM in data set [9] of 95.9%.
